Laboratory results reported in article PMC8583042, “New Hybrid Compounds Combining Fragments of Usnic Acid and Thioether Are Inhibitors of Human Enzymes TDP1, TDP2 and PARP1” (International Journal of Molecular Sciences, 2021).

Experiments:
[1] = EZ4U colorimetric cytotoxicity test, HEK293A; type: cell-based; details: human
Text: (§1) The low intrinsic cytotoxicity of the additional drug component in the clinically used anticancer cocktails with traditional drugs is very important for treatment. This approach in chemotherapy can reduce the potential resulting toxic load on the body in the case of a combined action of these inhibitors on the activity of several targets. […] The effects of the tested compounds on cell survival are shown on Figure 4 and the CC50 values for three cell lines are shown in Table 1. The intrinsic cytotoxicity of a number of the studied compounds is quite high, namely, they have close IC50 values against the TDP1 and CC50 values on one or several studied cell lines. Most of the compounds generally were more toxic for the HEK293FT and HeLa cell lines than for the HEK293A cell line (Table 1 and Figure 4). The cytotoxicity of the three leader compounds, 7g, 10a, and 7h, was quite high. […] Compound 10b was one of the least toxic among the ten tested compounds.
(§2) Cytotoxicity of the compounds was examined against human cell lines HEK293A (human embryonic kidney)—WT, TDP1 deficient (Tdp1-/-), PARP1 deficient (PARP1-/-), and HeLa (cervical cancer) using an EZ4U colorimetric test (Biomedica, Vienna, Austria). The HEK293A cell line was obtained from Thermo Fisher Scientific (Waltham, MA, USA), and the HeLa cell line was obtained from the Russian Cell Culture Collection (RCCC) Institute of Cytology RAS, St. Petersburg, Russia. The cells were grown in DMEM/F12 medium (Gibco, Thermo Fisher Scientific, Waltham, MA, USA), with 1x GlutaMAX (Gibco, Thermo Fisher Scientific, Waltham, MA, USA), 50 IU/mL penicillin, 50 μg/mL streptomycin (MP Biomedicals), and in the presence of 10% fetal bovine serum (Biolot, Saint-Petersburg, Russia) in a 5% CO2 atmosphere. Cells were grown in the presence of 1% DMSO in the control wells. After the formation of a 30–50% monolayer, the tested compounds were added to the medium, and the cell culture was monitored for 3 days. The values were normalized to their own control in each case. At least three independent experiments were carried out. The 50% cytotoxic concentration (CC50) was defined as the compound concentration that reduced the cell viability by 50% when compared to the untreated controls. The compound concentration that caused 50% cell growth inhibition was determined using OriginPro 8.6.0 software (OriginLab, Northampton, MA, USA). The measurements were carried out in three independent experiments.

[2] = Colorimetric cytotoxicity test, HEK293A PARP1-/-; type: cell-based; details: human, PARP1-/- HEK293A cells; PARP1-/- HEK293A cell line; read-out: CC50 of Tpc
Text: In our previous works, we checked the cytotoxic effect of Tpc and the TDP1 inhibitors—monoterpene 3-carene-derived compounds [48, 49] and UA combined with monoterpenoids, measured separately and jointly with Tpc—using a panel of HEK293FT and HEK293A Tdp1 knockout isogenic clones. […] The data on the HEK293FT mutants were of low reproducibility, which is why we decided to change the basic cell line to HEK293A [49]. In this work, we created new PARP1-/- HEK293A cells using the CRISPR–Cas9 approach (Figure S27). […] We checked the intrinsic cytotoxicity of the leader compound (10a) on the HEK293 wild type and TDP1-/- and PARP1-/- cell lines using a colorimetric test (Figure 6). […] There was no difference between the WT and mutant cells.
Cytotoxicity of the compounds was examined against human cell lines HEK293A (human embryonic kidney)—WT, TDP1 deficient (Tdp1-/-), PARP1 deficient (PARP1-/-), and HeLa (cervical cancer) using an EZ4U colorimetric test (Biomedica, Vienna, Austria). […] After the formation of a 30–50% monolayer, the tested compounds were added to the medium, and the cell culture was monitored for 3 days. […] The compound concentration that caused 50% cell growth inhibition was determined using OriginPro 8.6.0 software (OriginLab, Northampton, MA, USA). […]

[3] = tested on: HeLa cells; assay: Cytotoxicity of the combination of 10a and topotecan on HeLa cells; type: cell-based, human; details: Homo sapiens; HeLa, Tpc titrated with fixed 5 μM 10a; read-out: CC50 of Tpc with 10a
Text: TDP1 is able to cleave the TOP1–DNA complex, thus preventing the action of Tpc and decreasing the efficiency of this clinically used drug. The inhibition of TDP1 activity can increase the efficiency of Tpc. Next, we checked the cytotoxic effect of the combination of Tpc and examined the TDP1 inhibitors compared to Tpc alone on HeLa cells and HEK293 cells.
We observed the suppressed cell growth in the joint presence of the TDP1 inhibitor and Tpc on HeLa cells compared to Tpc alone (Figure 5). We observed the synergistic effect both when we titrated 10a with addition of fixed Tpc (1 μM or 2 μM) and vice versa when we titrated Tpc with addition of fixed 10a (5 μM). […] The CC50 value of Tpc decreased from 2 μM (only Tpc) to 0.7 μM (Tpc with 5 μM 10a).
as §2, with “The 50% cytotoxic concentration (CC50) was defined as the compound concentration that reduced the cell viability by 50% when compared to the untreated controls.” left out, “The measurements were carried out in three independent experiments.” left out

[4] = tested on: HeLa cells; assay: EZ4U colorimetric cytotoxicity test, HeLa; type: cell-based, human; details: Homo sapiens; HeLa, only Tpc
Text: as §1, §2

[5] = Colorimetric cytotoxicity test, HEK293FT; type: cell-based; details: human, HEK293FT cells, intrinsic cytotoxicity
Text: as §1, §2

[6] = molecular target: T1, PARP1 (Homo sapiens, UniProt P09874); assay: PARP1 autopoly(ADP-ribosyl)ation assay with [32P]-NAD+; type: biochemical; details: 0.5 mM concentration of the compound; read-out: PARP1 residual activity
T1 construct: made in house; host or cells: E. coli
T1 sequence (P09874 whole entry): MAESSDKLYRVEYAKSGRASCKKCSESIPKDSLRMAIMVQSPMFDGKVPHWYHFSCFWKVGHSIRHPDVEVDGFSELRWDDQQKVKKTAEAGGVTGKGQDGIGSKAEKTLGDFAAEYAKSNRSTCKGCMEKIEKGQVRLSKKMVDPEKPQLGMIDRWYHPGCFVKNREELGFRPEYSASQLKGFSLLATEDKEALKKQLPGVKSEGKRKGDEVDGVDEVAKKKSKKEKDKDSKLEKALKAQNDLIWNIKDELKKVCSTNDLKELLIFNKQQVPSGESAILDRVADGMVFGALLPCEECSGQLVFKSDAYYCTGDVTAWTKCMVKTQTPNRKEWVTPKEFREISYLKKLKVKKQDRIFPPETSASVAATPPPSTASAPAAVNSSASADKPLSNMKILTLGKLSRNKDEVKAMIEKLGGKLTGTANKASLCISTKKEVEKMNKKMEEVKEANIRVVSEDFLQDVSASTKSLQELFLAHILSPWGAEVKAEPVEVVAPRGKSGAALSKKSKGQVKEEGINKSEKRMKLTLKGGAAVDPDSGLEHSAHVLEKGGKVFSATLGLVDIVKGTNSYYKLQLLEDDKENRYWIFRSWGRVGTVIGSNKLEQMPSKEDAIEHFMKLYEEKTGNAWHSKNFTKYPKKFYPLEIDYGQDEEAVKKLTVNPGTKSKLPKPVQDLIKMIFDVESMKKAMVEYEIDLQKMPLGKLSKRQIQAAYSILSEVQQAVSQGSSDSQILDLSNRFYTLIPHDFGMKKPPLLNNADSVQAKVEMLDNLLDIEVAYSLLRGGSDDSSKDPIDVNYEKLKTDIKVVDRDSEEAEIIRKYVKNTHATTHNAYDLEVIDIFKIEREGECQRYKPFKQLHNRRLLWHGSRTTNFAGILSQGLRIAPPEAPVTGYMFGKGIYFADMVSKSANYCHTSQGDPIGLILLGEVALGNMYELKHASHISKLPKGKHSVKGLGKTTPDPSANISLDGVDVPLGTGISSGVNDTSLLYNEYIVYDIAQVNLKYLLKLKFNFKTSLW
Description: The next step of our study was to test the inhibitors for their ability to inhibit PARP1 and PARP2. UA and the 14 synthesized compounds were tested for the suppression of the ability of PARP1 and PARP2 to include a radioactive label into the acid-insoluble reaction product, poly(ADP-ribose) (PAR). […] The best effect we observed was for 9; the residual activity was 40 ± 5% under the reaction conditions (0.5 mM concentration of the compound), indicated in Materials and Methods.
(§3) Human recombinant tyrosyl-DNA phosphodiesterase 1 (TDP1) and human recombinant poly(ADP-ribose)-polymerase1 (PARP1) were expressed in the E. coli system and purified as described.
The radioactive labeled [32P]-NAD+ was synthesized from α–[32P]-ATP according to [55]. The reaction of autopoly(ADP-ribosyl)ation was carried out as follows: for PARP1, 50 mM Tris-HCl, pH 8.0, 10 mM MgCl2, 150 mM NaCl, and 7 mM β-mercaptoethanol, as well as activated DNA 2 oe/mL, 0.3 mM [^32P]-NAD+ at 37 °C. The reaction was initiated by adding PARP1 to 200 nM and the reaction mixtures were incubated for 2 min. For PARP2: 50 mM Tris-HCl, pH 8.0, 3 mM spermin, 150 mM NaCl, and 7 mM β-mercaptoethanol, as well as activated DNA 2 oe/mL, 0.6 mM [^32P] NAD+ at 37 °C. […] The incorporation of radioactivity into the product was calculated using a Typhoon FLA 9500 scanner (GE Healthcare, Chicago, IL, USA). […]

[7] = molecular target: T2, TDP1 (Homo sapiens, UniProt Q9NUW8); assay: Real-time fluorescence assay of TDP1 activity; type: biochemical; details: real-time fluorescent assay, 1.5 nM TDP1, 50 nM oligonucleotide; read-out: IC50 (TDP1)
T2 construct: made in house; host or cells: E. coli
T2 sequence (Q9NUW8 whole entry): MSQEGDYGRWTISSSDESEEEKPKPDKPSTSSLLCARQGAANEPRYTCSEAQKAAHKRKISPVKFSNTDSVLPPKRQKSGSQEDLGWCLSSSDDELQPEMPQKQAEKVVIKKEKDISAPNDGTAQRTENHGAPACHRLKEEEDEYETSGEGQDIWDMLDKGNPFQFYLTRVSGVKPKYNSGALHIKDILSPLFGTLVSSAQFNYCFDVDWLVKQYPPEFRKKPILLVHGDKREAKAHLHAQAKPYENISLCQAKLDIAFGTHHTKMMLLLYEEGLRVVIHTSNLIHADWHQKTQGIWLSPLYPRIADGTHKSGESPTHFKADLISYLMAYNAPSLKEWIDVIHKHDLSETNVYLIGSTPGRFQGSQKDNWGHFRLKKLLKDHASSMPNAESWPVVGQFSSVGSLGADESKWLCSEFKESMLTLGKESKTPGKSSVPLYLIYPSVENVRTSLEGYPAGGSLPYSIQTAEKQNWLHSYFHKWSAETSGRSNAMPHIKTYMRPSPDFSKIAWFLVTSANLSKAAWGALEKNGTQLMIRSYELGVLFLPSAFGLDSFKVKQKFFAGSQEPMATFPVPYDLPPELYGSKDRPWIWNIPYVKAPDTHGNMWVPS
Text: We tested UA and all 14 newly synthesized UA derivatives for their TDP1 inhibitory properties by measuring their IC50 values using a real-time fluorescent assay. […] Compounds 10a,b are sulfoxide analogs of 7g,h.
as §3
The biosensor (5′-[FAM] AAC GTC AGGGTC TTC C [BHQ]-3′) was synthesized in the Laboratory of Nucleic Acid Chemistry at the Institute of Chemical Biology and Fundamental Medicine (Novosibirsk, Russia) and was used for TDP1 enzyme activity real-time fluorescence detection. The reaction mixture (200 μL) contained a TDP1 reaction buffer (50 mM Tris-HCl, pH 8.0, 50 mM NaCl, and 7 mM β-mercaptoethanol), 50 nM oligonucleotide, varied concentrations of the tested compounds, and purified TDP1 in a final concentration 1.5 nM. The reaction mixtures were incubated at a constant temperature of 26 °C in a POLARstar OPTIMA fluorimeter (BMG LABTECH, GmbH, Ortenberg, Germany). Fluorescence intensity was measured (Ex485/Em520 nm) every 1 min for 10 min. The average values of the half maximal inhibitory concentration (IC50) were determined using an eleven-point concentration response curve and calculated using MARS Data Analysis 2.0 (BMG LABTECH). The 50% inhibitory concentration (IC50) was defined as the concentration of the compound that inhibited 50% of the enzyme activity when compared to the untreated controls. At least three independent experiments were carried out to obtain the IC50 values. To determine the kinetic parameters of the TDP1 enzymatic reaction, the apparent maximum rate of enzymatic reaction (Vmax), Michaelis constant (KM), possible inhibition mechanism, and steady-state kinetic experiments were carried out at 5 fixed concentrations of the substrate, with variation in the inhibitor concentrations. The standard reaction mixtures (200 μL) contained reaction buffer components; 50 nM, 100 nM, 200 nM, 500 nM, or 1000 nM substrate; an inhibitor; and 1.5 nM recombinant human TDP1. The initial kinetic curves were obtained in three independent experiments and statistically processed in OriginPro 8.6.0 (OriginLab, Northampton, MA, USA).

[8] = EZ4U colorimetric cytotoxicity test, HeLa; type: cell-based, human; details: human, HeLa cells; intrinsic cytotoxicity, compound alone, 3 days
Text: as §1, §2

| remaining activity at 500 µM [6] | IC50 [7] | Compound | CC50 at 3 days ([1]; wild-type HEK293A cells, WT HEK293A cells, read-out: CC50 of Tpc) | CC50 at 3 days [2] | CC50 [3] | CC50 [4] | CC50 at 3 days [5] | CC50 at 3 days ([1]; HEK293A cells, intrinsic cytotoxicity, 3 days, read-out: HEK293A CC50) | CC50 at 3 days [8] |
| --- | --- | --- | --- | --- | --- | --- | --- | --- | --- |
| – | – | CC[C@@]1(O)C(=O)OCc2c1cc1n(c2=O)Cc2cc3c(CN(C)C)c(O)ccc3nc2-1 [Tpc, topotecan, reference compound] | 27 ± 4 nM | 50 ± 5 nM | 700 nM | 2000 nM | – | – | – |
| 40 ± 5% | 6600 ± 1000 nM | CC(=O)C1=C(O)C=C2Oc3c(C(=O)CSC(N)=O)c(O)c(C)c(O)c3[C@@]2(C)C1=O [compound 9, (2R)-4-acetyl-10-[2-(carbamoylsulfanyl)acetyl]-5,11,13-trihydroxy-2,12-dimethyl-8-oxatricyclo[7.4.0.0^2,7]trideca-1(13),4,6,9,11-pentaen-3-one] | – | – | – | – | 7000 ± 2000 nM | > 50000 nM | 13000 ± 1000 nM |
